Structures can show the parent of a compound that is named as a salt.
These compounds were tested against Sphingosine 1-phosphate receptor 1 (Homo sapiens, UniProt P21453) (assay: potentiators of S1P1 agonist response, dose response, cell-based, potentiator mode, 60K MLSMR set (AID 466)). Conditions: not given.
Sequence of Sphingosine 1-phosphate receptor 1 (P21453 whole entry): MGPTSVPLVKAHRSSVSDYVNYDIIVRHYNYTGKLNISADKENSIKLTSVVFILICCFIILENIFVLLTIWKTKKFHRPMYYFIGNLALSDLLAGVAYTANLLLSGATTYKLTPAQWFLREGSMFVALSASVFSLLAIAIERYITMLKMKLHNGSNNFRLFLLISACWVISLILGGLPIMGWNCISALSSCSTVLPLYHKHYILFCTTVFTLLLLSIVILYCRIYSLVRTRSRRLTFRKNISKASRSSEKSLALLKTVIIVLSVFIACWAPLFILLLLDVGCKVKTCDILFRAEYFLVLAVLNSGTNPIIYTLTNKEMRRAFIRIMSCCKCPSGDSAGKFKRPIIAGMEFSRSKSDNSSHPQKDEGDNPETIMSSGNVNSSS

| Structure (SMILES) | EC50 [µM] |
| --- | --- |
| CC(C)N1C(=O)CCC1C(=O)N1CCC(Cc2ccccc2)CC1 (configuration not stated) [5-(4-benzylpiperidine-1-carbonyl)-1-isopropyl-2-pyrrolidone] | > 95 |
| CC(=O)Nc1cc(OC(C)=O)c2nonc2c1OC(C)=O [Acetic acid 7-acetoxy-5-acetylamino-benzo[1,2,5]oxadiazol-4-yl ester] | 5.71 |
| CCN=c1scc(-c2ccc3c(c2)NC(=O)CO3)n1N=C1CCCC1 [MLS000054638] | 7.16 |
| O=C(C1CCCN1S(=O)(=O)c1cccc2cccnc12)N1CCN(c2ccccc2)CC1 (configuration not stated) [(4-phenyl-1-piperazinyl)-[1-(8-quinolinylsulfonyl)-2-pyrrolidinyl]methanone] | > 95 |
| Cc1oc2cc(O)cc(O)c2c(=O)c1-c1ccc2c(c1)OCCCO2 [3-(3,4-dihydro-2H-1,5-benzodioxepin-7-yl)-2-methyl-5,7-bis(oxidanyl)chromen-4-one] | 3.73 |
| Cc1ccc(-c2csc(N3CCC(NS(=O)(=O)c4ccc5c(c4)OCCO5)CC3)n2)cc1 [N-[1-[4-(4-methylphenyl)-1,3-thiazol-2-yl]piperidin-4-yl]-2,3-dihydro-1,4-benzodioxine-6-sulfonamide] | 1.4 |
| COc1ccccc1OCc1nc(C#N)c(N2CC(C)CC(C)C2)o1 (configuration not stated) [5-(3,5-dimethyl-1-piperidinyl)-2-[(2-methoxyphenoxy)methyl]-4-oxazolecarbonitrile] | 2.55 |
| O=C(CCc1nc(-c2ccccc2F)no1)Nc1ccc(Oc2ccccc2)cc1 [3-[3-(2-fluorophenyl)-1,2,4-oxadiazol-5-yl]-N-(4-phenoxyphenyl)propanamide] | 4.77 |
| O=C(c1ccc(F)cc1)C(CN1CCOCC1)c1ccccc1 (configuration not stated) [1-(4-fluorophenyl)-3-(4-morpholinyl)-2-phenyl-1-propanone;hydrochloride] | 23.5 |
| Fc1ccc2[nH]c3c(N4CCN(c5ccccc5)CC4)ncnc3c2c1 | 9.52 |
| NC(=Nc1nc2c(c(=O)[nH]1)CCCC2)Nc1ccccc1 [MLS000078734] | 5.87 |
| O=S(=O)(c1cccs1)N1CCN(CC(O)COc2cc(Cl)ccc2Cl)CC1 (configuration not stated) [1-(2,5-dichlorophenoxy)-3-(4-thiophen-2-ylsulfonyl-1-piperazinyl)-2-propanol] | 4.33 |
| O=C(Nc1nc2c(s1)CCCC2)c1cc2n(n1)C(C(F)(F)F)CC(C1CC1)N2 (configuration not stated) [5-Cyclopropyl-7-trifluoromethyl-4,5,6,7-tetrahydro-pyrazolo[1,5-a]pyrimidine-2-carboxylic acid (4,5,6,7-tetrahydro-benzothiazol-2-yl)-amide] | 0.908 |
| CCOC(=O)/C=C/S(=O)(=O)c1ccc(NC(C)=O)cc1 | > 10 |
| Cc1nc(NC(C)c2ccccc2)c2oc3ccccc3c2n1 (configuration not stated) [(2-methylbenzofuro[3,2-d]pyrimidin-4-yl)-(1-phenylethyl)amine] | 9.78 |
| CC(C)c1cc(C(=O)N2CCN(C(c3ccccc3)c3ccccc3)CC2)no1 [(4-benzhydrylpiperazin-1-yl)-(5-propan-2-yl-1,2-oxazol-3-yl)methanone] | 8.42 |
| O=C(Nc1ccc(O)cc1)c1cc2n(n1)C(C(F)(F)F)CC(c1ccco1)N2 (configuration not stated) [5-(2-furanyl)-N-(4-hydroxyphenyl)-7-(trifluoromethyl)-1,5,6,7-tetrahydropyrazolo[1,5-a]pyrimidine-2-carboxamide] | 3.29 |
| O=C(Nc1c(F)cc(F)cc1Br)c1cc(-c2ccc(O)cc2)on1 [MLS000116264] | 2.14 |
| Fc1ccc2[nH]c3c(N4CCN(Cc5ccc6c(c5)OCO6)CC4)ncnc3c2c1 [4-[4-(1,3-benzodioxol-5-ylmethyl)-1-piperazinyl]-8-fluoro-5H-pyrimido[5,4-b]indole] | 2 |
| c1ccc2c(c1)oc1c(NCc3ccc4c(c3)OCO4)ncnc12 [MLS000057790] | 6.46 |
| Fc1ccccc1COc1ccc(C=Nn2cnnc2)cc1 [1-[4-[(2-fluorophenyl)methoxy]phenyl]-N-(1,2,4-triazol-4-yl)methanimine] | 4.74 |

The remaining lines, values ahead:

| EC50 [µM] | Structure (SMILES) |
| --- | --- |
| > 95 | O=C(CSc1nnc(Cc2csc(Nc3cccc(Cl)c3)n2)o1)N1CCc2ccccc21 [2-[[5-[[2-(3-chloroanilino)-1,3-thiazol-4-yl]methyl]-1,3,4-oxadiazol-2-yl]sulfanyl]-1-(2,3-dihydroindol-1-yl)ethanone] |
| 1.59 | CCC(C)c1ccc2oc(-c3ccc(NC(=O)Cn4cnc5c(=O)n(C)c(=O)n(C)c54)cc3)nc2c1 (configuration not stated) [2-(2,6-diketo-1,3-dimethyl-purin-9-yl)-N-[4-(5-sec-butyl-1,3-benzoxazol-2-yl)phenyl]acetamide] |
| 8.25 | Cc1ccccc1-c1noc(-c2ccc(O)cc2)n1 [4-[3-(2-methylphenyl)-2H-1,2,4-oxadiazol-5-ylidene]-1-cyclohexa-2,5-dienone] |
| 1.47 | Cn1c(C(=O)N2CCCc3ccccc32)cc2sccc21 [(3,4-Dihydro-2H-quinolin-1-yl)-(4-methyl-4H-thieno[3,2-b]pyrrol-5-yl)-methanone] |
| 0.226 | CCOc1ccc(-c2nc(-c3ccncc3)no2)cc1OCC [4-[5-(3,4-diethoxyphenyl)-1,2,4-oxadiazol-3-yl]pyridine] |
| 4.76 | CCOc1ccc(C(=O)Nc2ccc(Cl)cn2)cc1Cl [3-chloranyl-N-(5-chloranylpyridin-2-yl)-4-ethoxy-benzamide] |
| 0.428 | CCOc1ccc(-c2noc(-c3ccncc3)n2)cc1OCC [3-(3,4-diethoxyphenyl)-5-(4-pyridyl)-1,2,4-oxadiazole] |
| 3.37 | CCOC(=O)C1C(=O)C=C(c2ccc(OC)cc2)CC1c1ccco1 (configuration not stated) [6-(2-furanyl)-4-(4-methoxyphenyl)-2-oxo-1-cyclohex-3-enecarboxylic acid ethyl ester] |
| 6.19 | CCCCn1nnnc1SCC(=O)c1ccc(C)c(C)c1 [2-(1-Butyl-1H-tetrazol-5-ylsulfanyl)-1-(3,4-dimethyl-phenyl)-ethanone] |
| 3.08 | CCCc1cc(C(=O)Nc2sc(C)c(CC)c2C#N)no1 [MLS000116385] |
| 4.86 | Cc1cccc(OCCCCc2c(C)n[nH]c2C)c1C [SMR000103133] |
| 1.88 | Cc1cc(C(=O)CSc2nnnn2C)c(C)n1-c1cccc(F)c1 [1-[1-(3-fluorophenyl)-2,5-dimethyl-3-pyrrolyl]-2-[(1-methyl-5-tetrazolyl)thio]ethanone] |
| 6.36 | CCCC(=O)Nc1ccc(-c2nc3cc(C)ccc3o2)cc1 [MLS000061826] |
| 2.1 | CC(=O)c1c(C)[nH]c(C(=O)OCCCCN2C(=O)c3ccccc3C2=O)c1C [4-acetyl-3,5-dimethyl-1H-pyrrole-2-carboxylic acid 4-(1,3-dioxo-2-isoindolyl)butyl ester] |
| > 95 | Cc1ccc2c(c1)N(CC(=O)Nc1ccc3c(c1)OCCO3)C(=O)CO2 [MLS000074457] |
| 5.24 | Cc1ccnc(SCC(=O)Nc2sc3c(c2C#N)CCCC3)n1 [MLS000077260] |
| 23.1 | O=C(CSc1nnc(-c2cc3ccccc3cc2O)n1Cc1ccco1)c1ccc(F)cc1 [(3Z)-3-[3-[2-(4-fluorophenyl)-2-oxidanylidene-ethyl]sulfanyl-4-(furan-2-ylmethyl)-1H-1,2,4-triazol-5-ylidene]naphthalen-2-one] |
| 5.75 | COc1ccccc1-c1cc(C(=O)Nc2ccccc2SC)no1 [5-(2-methoxyphenyl)-N-(2-methylsulfanylphenyl)-1,2-oxazole-3-carboxamide] |
| 5.57 | Cc1cc(C(=O)CSc2nc3ccccc3c(=O)n2C)c(C)n1Cc1ccc2c(c1)OCO2 [2-[2-[1-(1,3-benzodioxol-5-ylmethyl)-2,5-dimethyl-pyrrol-3-yl]-2-oxidanylidene-ethyl]sulfanyl-3-methyl-quinazolin-4-one] |
| 5.53 | Cc1cc(NC(=O)c2oc3ccccc3c2C)ccc1-n1cnnn1 [3-Methyl-benzofuran-2-carboxylic acid (3-methyl-4-tetrazol-1-yl-phenyl)-amide] |
| > 95 | CCn1c(-c2cccc(Cl)c2)n[nH]c1=S [SMR000104244] |

Same assay, conditions: inactive by the depositor's call

| Structure (SMILES) | EC50 [µM] |
| --- | --- |
| Cc1noc(C)c1S(=O)(=O)N(CC(=O)Nc1ccc2c(c1)OCCO2)c1ccc(C(C)C)cc1 [MLS000117406] | 15.9 |
| O=C(Nc1nc(-c2ccc3c(c2)OCO3)cs1)c1ccncc1 [MLS000073104] | 12 |
| CC1=C(/C=C/C(C)=C/C=C/C(C)=C/C(=O)O)C(C)(C)CCC1 [ALL-TRANS-RETINOIC ACID] | 34.1 |
| CCn1nc(-c2cccs2)nc2c(=O)n(C)c(=O)nc1-2 [1-ethyl-6-methyl-3-thiophen-2-yl-pyrimido[5,4-e][1,2,4]triazine-5,7-dione] | 31.8 |
| COc1cccc(-c2nc(-c3ccc(NC(=O)c4cccnc4)cc3)no2)c1 [MLS000047254] | 22.1 |
| O=C(Nc1nc(-c2nc3ccccc3s2)cs1)c1ccc(S(=O)(=O)N2CCOCC2)cc1 [MLS000087900] | 15.5 |
| CCCCOc1ccc(S(=O)(=O)Nc2cc(OC)ccc2OC)cc1 [4-butoxy-N-(2,5-dimethoxyphenyl)benzenesulfonamide] | 12.1 |
| Cc1cc(C(=O)N2CCN(C(c3ccccc3)c3ccccc3)CC2)no1 [(4-benzhydrylpiperazin-1-yl)-(5-methyl-1,2-oxazol-3-yl)methanone] | 19.1 |

Further lines, results first:

| EC50 [µM] | Structure (SMILES) |
| --- | --- |
| 10.4 | CCc1ccc2c(COC(=O)c3n[nH]c4ccccc34)cc(=O)oc2c1 [(7-ethyl-2-oxochromen-4-yl)methyl 1H-indazole-3-carboxylate] |
| 12.6 | Cc1ccc(C(=O)c2cncc(Br)c2)cc1 [(5-bromanylpyridin-3-yl)-(4-methylphenyl)methanone] |
| 11.6 | COc1ccc(-n2c(C)cc(C(=O)COC(=O)Cn3cnc4ccccc43)c2C)cc1 [2-(1-benzimidazolyl)acetic acid [2-[1-(4-methoxyphenyl)-2,5-dimethyl-3-pyrrolyl]-2-oxoethyl] ester] |
| 15 | Cc1cc(C)n(-c2nc3ccccc3c(=O)n2OCCOc2ccccc2)n1 [2-(3,5-dimethyl-1-pyrazolyl)-3-(2-phenoxyethoxy)-4-quinazolinone] |
| 15 | Oc1nnc(Sc2ncnc3sccc23)n1CCc1ccccc1 [4-(2-phenylethyl)-3-(4-thieno[2,3-d]pyrimidinylthio)-1H-1,2,4-triazol-5-one] |
| 57.7 | COc1ccccc1-c1cc(C(=O)Nc2cc(C)nn2-c2ccccc2)no1 [5-(2-methoxyphenyl)-N-(3-methyl-1-phenyl-1H-pyrazol-5-yl)isoxazole-3-carboxamide] |
| 16.5 | CCOC(=O)Cc1csc(NC(=O)c2ccc(Br)s2)n1 [2-[2-[(5-bromothiophene-2-carbonyl)amino]thiazol-4-yl]acetic acid ethyl ester] |

From BindingDB's records for doi:10.7270/Q2ZC817P (The Scripps Research Institute Molecular Screening Center, 2007)
